Results on 26 compounds are retold here after US12263171B2, “7-, 8-, and 10-substituted amino triazolo quinazoline derivatives as adenosine receptor antagonists, pharmaceutical compositions and their use” (Merck Sharp & Dohme LLC, priority 2018, dated 2025).

The target in assay [1] is human A2a adenosine receptor (Homo sapiens (Human), UniProt P29274). In words: A2a receptor affinity radioligand binding assay ([3H] SCH58261, membranes from HEK293 or CHO cells). Particulars: unstarred values: radioligand binding. The procedure: The A2a receptor affinity binding assay measured the amount of binding of a tritiated ligand with high affinity for the A2a adenosine receptor to membranes made from HEK293 or CHO cells recombinantly expressing the human A2a adenosine receptor, in the presence of varying concentrations of a compound of the invention.
Measurement of A2a Binding Affinity Using Radioligand Binding
148 μL, (5 μg/mL) membranes (Perkin Elmer, Cat. No. RBHA2aM4001A) and 2 μL compounds of the invention to be tested (test compound) were transferred to individual wells of a 96-well polypropylene assay plate and incubated for 15 to 30 minutes at room temperature. [^3H] SCH58261 ((7-(2-phenylethyl)-5-amino-2-(2-furyl)-pyrazolo-[4,3-e]-1,2,4-triazolo[1,5-c]pyrimidine)) was diluted in assay buffer (50 mM Tris pH 7.4, 10 mM MgCl2, 0.005% Tween20) to a concentration of 4 nM and 50 μL transferred to each well of the assay plate. […] The assay plate was incubated at room temperature for 60 minutes with agitation. […] Filtering was achieved by aspirating the contents of the assay plate for 5 seconds, then washing and aspirating the contents three times with ice-cooled wash buffer (50 mM Tris-HCl pH 7.4, 150 mM NaCl) and allowing the vacuum manifold to dry the plate for 30 seconds. The filter plate was incubated for at least 1 hour at 55° C. and allowed to dry. The bottom of the filter plate was sealed with backing tape. 40 μL. […] The plate was incubated for at least 20 minutes, and then the amount of radioactivity remaining in each well was determined using a TopCown® (Perkin Elmer) scintillation counter. After normalization to total and non-specific binding, the percent effect at each compound concentration was calculated. The plot of percent effect versus the log of compound concentration was analyzed electronically using a 4-parameter logistic fit based on the Levenberg-Marquardt algorithm to generate IC50 values.

The target of assay [2] is human A2b adenosine receptor (Homo sapiens (Human), UniProt P29275). In words: A2b radioligand filtration binding assay (tritiated proprietary A2b antagonist, HEK293 membranes). Particulars: for IC50: unstarred values: radioligand binding. The procedure: Measurement of A2b Binding Affinity
The reported affinity of the compounds of the invention for the human A2b adenosine receptor was determined experimentally using a radioligand filtration binding assay. This assay measures the amount of binding of a tritiated proprietary A2b receptor antagonist, in the presence and absence of a compound of the invention, to membranes made from HEK293 cells recombinantly expressing the human A2b adenosine receptor (Perkin Elmer, Cat. No. ES-013-C).
The filter plate was incubated for at least 1 hour at 55° C. and allowed to dry. The bottom of the filter plate was then sealed with backing tape. […] The plates were then incubated for at least 20 minutes, and then the amount of radioactivity remaining in each well was determined using a TopCount® (Perkin Elmer) scintillation counter. After normalization to total and non-specific binding, the percent effect at each compound concentration was calculated. The plot of percent effect versus the log of compound concentration was analyzed electronically using a 4-parameter logistic fit based on the Levenberg-Marquardt algorithm to generate IC50 values.

Sequence of human A2b adenosine receptor (P29275 whole entry): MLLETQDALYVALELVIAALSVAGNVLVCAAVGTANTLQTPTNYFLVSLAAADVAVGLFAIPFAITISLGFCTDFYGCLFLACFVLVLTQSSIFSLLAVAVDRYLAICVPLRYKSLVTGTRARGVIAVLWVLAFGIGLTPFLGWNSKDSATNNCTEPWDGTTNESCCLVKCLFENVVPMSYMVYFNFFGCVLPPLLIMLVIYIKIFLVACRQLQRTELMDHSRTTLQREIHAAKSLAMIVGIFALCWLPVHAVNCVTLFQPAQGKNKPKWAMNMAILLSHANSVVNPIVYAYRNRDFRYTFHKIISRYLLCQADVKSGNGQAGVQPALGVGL
Sequence of human A2a adenosine receptor (P29274 whole entry): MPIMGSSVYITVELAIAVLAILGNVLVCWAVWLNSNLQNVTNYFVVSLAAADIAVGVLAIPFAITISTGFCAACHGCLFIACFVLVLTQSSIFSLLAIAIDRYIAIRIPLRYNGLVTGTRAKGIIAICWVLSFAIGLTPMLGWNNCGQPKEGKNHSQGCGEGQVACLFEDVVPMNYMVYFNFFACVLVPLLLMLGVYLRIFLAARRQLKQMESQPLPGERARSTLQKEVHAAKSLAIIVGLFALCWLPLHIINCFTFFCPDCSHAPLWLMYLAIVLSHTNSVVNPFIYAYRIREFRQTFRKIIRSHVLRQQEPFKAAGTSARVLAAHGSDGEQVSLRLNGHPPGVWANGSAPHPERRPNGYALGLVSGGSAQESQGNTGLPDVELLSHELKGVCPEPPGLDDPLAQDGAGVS

On to `CCNC(=O)C(C)(C)n1cc(N2CCC[C@@H](c3nc4c5cccc(OC)c5nc(N)n4n3)C2)cn1` [Example 36, (R)-2-(4-(3-(5-amino-7-methoxy-[1,2,4]triazolo[1,5-c]quinazolin-2-yl)piperidin-1-yl)-1H-pyrazol-1-yl)-N-ethyl-2-methylpropanamide], for which the values for the concentration for half-maximal inhibition (IC50) in assay [1] and in assay [2] were 1.8 nM and 1.7 nM, respectively.

For the compound `COc1cccc2c1nc(N)n1nc([C@@H]3CCC[C@H](c4cnn(C)c4)C3)nc21` [Example 136D], the IC50 worked out at 29 nM in assay [1] and 1980 nM in assay [2].

In the case of `COc1cccc2c1nc(N)n1nc([C@@H]3CCCN(c4cn(CC(C)(C)O)nc4C)C3)nc21` [Example 30, (R)-1-(4-(3-(5-amino-7-methoxy-[1,2,4]triazolo[1,5-c]quinazolin-2-yl)piperidin-1-yl)-3-methyl-1H-pyrazol-1-yl)-2-methylpropan-2-ol], the IC50 was 0.4 nM in assay [1] and 103 nM in assay [2].

Turning to `COc1ccc2c(c1)nc(N)n1nc([C@@H]3CCCN(c4ccc(OC(F)F)nc4)C3)nc21` [Example 191, (R)-2-(-(6-(difluoromethoxy)pyridin-3-yl)piperidin-3-yl)-8-methoxy-[1,2,4]triazolo[1,5-c]quinazolin-5-amine], the IC50 in assay [1] amounted to 2.5 nM; in assay [2], 18.4 nM.

Consider `COc1cccc2c1nc(N)n1nc([C@@H]3CCCN(c4cnn([C@H]5CCCC[C@H]5O)c4)C3)nc21` [Example 24, (1R,2S)-2-(4-((R)-3-(5-amino-7-methoxy-[1,2,4]triazolo[1,5-c]quinazolin-2-yl)piperidin-1-yl)-1H-pyrazol-1-yl)cyclohexan-1-ol], for which the IC50 in assay [1] was 2.9 nM; in assay [2], 6.9 nM.

Take `COc1ccc2c(c1)nc(N)n1nc([C@@H]3CC[C@H](C)N(c4cnn(CC(C)(C)O)c4)C3)nc21` [Example 204, 1-(4-((2S,5R)-5-(5-amino-8-methoxy-[1,2,4]triazolo[1,5-c]quinazolin-2-yl)-2-methylpiperidin-1-yl)-1H-pyrazol-1-yl)-2-methylpropan-2-ol]: the IC50 in assay [1] came to 0.4 nM; in assay [2], 1.1 nM.

For the compound `COc1cccc2c1nc(N)n1nc([C@@H]3CCCN(c4cn[nH]c4)C3)nc21` [Example 55], the results for the IC50 in assay [1] and in assay [2] were 1.5 nM and 4.7 nM, respectively.

On to `CCn1cc(N2C[C@H](c3nc4c5cccc(OC)c5nc(N)n4n3)CC[C@H]2C)cn1` [Example 140B], for which the IC50 in assay [1] came out at 1.3 nM; in assay [2], 758 nM.

With `COc1cccc2c1nc(N)n1nc(C3CN(c4cn(CC(C)(C)O)nc4C)CC(F)(F)C3)nc21` (single isomer, unassigned) [Example 158B, (R or S)1-(4-(5-(5-amino-7-methoxy-[1,2,4]triazolo[1,5-c]quinazolin-2-yl)-3,3-difluoropiperidin-1-yl)-3-methyl-1H-pyrazol-1-yl)-2-methylpropan-2-ol], the IC50 stood at 0.4 nM in assay [1] and 526 nM in assay [2].

As for `COc1cccc2c1nc(N)n1nc([C@@H]3CCCN(c4cncc(C)n4)C3)nc21` [Example 103, (R)-7-methoxy-2-(1-(6-methylpyrazin-2-yl)piperidin-3-yl)-[1,2,4]triazolo[1,5-c]quinazolin-5-amine], the IC50 amounted to 1.2 nM in assay [1] and 159 nM in assay [2].

Take `COc1cccc2c1nc(N)n1nc([C@@H]3CCCN(c4cnc(C5CC5)cn4)C3)nc21` [Example 105, (R)-2-(1-(5-cyclopropylpyrazin-2-yl)piperidin-3-yl)-7-methoxy-[1,2,4]triazolo[1,5-c]quinazolin-5-amine]: the IC50 in assay [1] came to 0.7 nM; in assay [2], 165 nM.

Turning to `COc1ccc2c(c1)nc(N)n1nc([C@@H]3CC[C@H](C)N(c4cnn(C5CCC[C@@H]5O)c4)C3)nc21` (single isomer, unassigned) [Example 210B], the IC50 came out at 0.1 nM in assay [1] and 3.2 nM in assay [2].

As for `COc1ccc2c(c1)nc(N)n1nc(C3CCCCN(c4cnn(CC(C)(C)O)c4)C3)nc21` (stereo not shown) [Example 217, 1-(4-(3-(5-amino-8-methoxy-[1,2,4]triazolo[1,5-c]quinazolin-2-yl)azepan-1-yl)-1H-pyrazol-1-yl)-2-methylpropan-2-ol], the values for the IC50 in assay [1] and in assay [2] were 4.6 nM and 207 nM, respectively.

Turning to `COc1ccc2c(c1)nc(N)n1nc([C@H]3C[C@H](C)CN(c4cnn(CC(C)(C)O)c4)C3)nc21` [Example 195C], the IC50 was 281 nM in assay [1] and 9440 nM in assay [2].

In assay [1], `COc1ccc2c(c1)nc(N)n1nc([C@@H]3CCCN(c4cnn([C@H]5CCC[C@@H]5O)c4)C3)nc21` [Example 187B, (1S,2S)-2-(4-((R)-3-(5-amino-8-methoxy-[1,2,4]triazolo[1,5-c]quinazolin-2-yl)piperidin-1-yl)-1H-pyrazol-1-yl)cyclopentan-1-ol] returned an IC50 of 406 nM. The “A2B binding % inh. @ 10000 nM” value in assay [2] (@ 10000 nM, unstarred) is recorded as 16% inh. @ 10000 nM.

Regarding `COc1cccc2c1nc(N)n1nc([C@@H]3CCCN(c4cn(C)cn4)C3)nc21` [Example 76, (R)-7-methoxy-2-(1-(1-methyl-1H-imidazol-4-yl)piperidin-3-yl)-[1,2,4]triazolo[1,5-c]quinazolin-5-amine], the results for the IC50 in assay [1] and in assay [2] were 3.6 nM and 1780 nM, respectively.

Regarding `COc1cccc2c1nc(N)n1nc([C@@H]3CCCN(c4cnn([C@@H]5CCCC[C@@H]5O)c4)C3)nc21` [Example 25], the values for the IC50 in assay [1] and in assay [2] were 2.3 nM and 5.7 nM, respectively.

As for `COc1cccc2c1nc(N)n1nc(C3CCC(C)N(c4cnn(C5CC5)c4)C3)nc21` (single isomer, unassigned) [Example 141C], the IC50 in assay [1] came to 1 nM; in assay [2], 12 nM.

With `COc1ccc2c(c1)nc(N)n1nc([C@H]3C[C@@H](C)CN(c4cnn(CC(C)(C)O)c4)C3)nc21` [Example 195A], the IC50 came out at 35.9 nM in assay [1] and 5810 nM in assay [2].

On to `COc1cccc2c1nc(N)n1nc([C@@H]3CCCN(c4nccn4C)C3)nc21` [Example 81, (R)-7-methoxy-2-(1-(1-methyl-1H-imidazol-2-yl)piperidin-3-yl)-[1,2,4]triazolo[1,5-c]quinazolin-5-amine], for which the IC50 in assay [1] came out at 1.4 nM; in assay [2], 813 nM.

Consider `COc1ccc2c(c1)nc(N)n1nc([C@@H]3CCCN(c4cnn(C(C)(C)CO)c4)C3)nc21` [Example 188, (R)-2-(4-(3-(5-amino-8-methoxy[1,2,4]triazolo[1,5-c]quinazolin-2-yl)piperidin-1-yl)-1H-pyrazol-1-yl)-2-methylpropan-1-ol], for which the IC50 amounted to 0.7 nM in assay [1] and 44.6 nM in assay [2].

For the compound `COc1ccc2c(c1)nc(N)n1nc([C@@H]3CC[C@H](C)N(c4cnn([C@H](C)C(C)(C)O)c4)C3)nc21` [Example 211B, (R)-3-(4-((2S,5R)-5-(5-amino-8-methoxy-[1,2,4]triazolo[1,5-c]quinazolin-2-yl)-2-methylpiperidin-1-yl)-1H-pyrazol-1-yl)-2-methylbutan-2-ol], the IC50 came out at 0.6 nM in assay [1] and 16.1 nM in assay [2].

Consider `COc1cccc2c1nc(N)n1nc([C@@H]3CCCN(c4cc(C)n(C)n4)C3)nc21` [Example 74, (R)-2-(1-(1,5-dimethyl-1H-pyrazol-3-yl)piperidin-3-yl)-7-methoxy-[1,2,4]triazolol[1,5-c]quinazolin-5-amine], for which the IC50 came out at 1 nM in assay [1] and 3.1 nM in assay [2].

For the compound `COc1cccc2c1nc(N)n1nc([C@@H]3CCCN(c4ccn(C)c(=O)c4)C3)nc21` [Example 87, (R)-4-(3-(5-amino-7-methoxy-[1,2,4]triazolo[1,5-c]quinazolin-2-yl)piperidin-1-yl)-1-methylpyridin-2(1H)-one], the IC50 amounted to 1.5 nM in assay [1] and 858 nM in assay [2].

For `COc1cccc2c1nc(N)n1nc([C@@H]3CCCN(c4ccc(=O)n(C)c4)C3)nc21` [Example 88, (R)-5-(3-(5-amino-7-methoxy-[1,2,4]triazolo[1,5-c]quinazolin-2-yl)piperidin-1-yl)-1-methylpyridin-2(1H)-one], the IC50 amounted to 2 nM in assay [1] and 295 nM in assay [2].

As for `COc1cccc2c1nc(N)n1nc([C@@H]3CCCN(c4nnc5n4CCNC5)C3)nc21` [Example 71, (R)-7-methoxy-2-(1-(5,6,7,8-tetrahydro-[1,2,4]triazolo[4,3-a]pyrazin-3-yl)piperidin-3-yl)-[1,2,4]triazolo[1,5-c]quinazolin-5-amine], the IC50 in assay [1] was 0.2 nM; in assay [2] it was 5610 nM.
